Columns and labels:
Assay in all cases: SPR (Biacore T200), multicycle kinetics, global […] Langmuir fit
Format in all cases: binding
BLM [1] = biological target: T1, BLM (Homo sapiens, UniProt P54132, K38R)
T1 construct: recombinant, pET28a-sumo in E. coli BL21(DE3); amine-coupled to CM5 chip

BLM [2] = biological target: T2, BLM (Homo sapiens, UniProt P54132)
T2 construct: recombinant, pET28a-sumo in E. coli BL21(DE3); amine-coupled to CM5 chip

BLM [3] = biological target: T3, BLM (Homo sapiens, UniProt P54132, K31R)
T3 construct: recombinant, pET28a-sumo in E. coli BL21(DE3); amine-coupled to CM5 chip
T3 sequence (P54132 whole entry K31R): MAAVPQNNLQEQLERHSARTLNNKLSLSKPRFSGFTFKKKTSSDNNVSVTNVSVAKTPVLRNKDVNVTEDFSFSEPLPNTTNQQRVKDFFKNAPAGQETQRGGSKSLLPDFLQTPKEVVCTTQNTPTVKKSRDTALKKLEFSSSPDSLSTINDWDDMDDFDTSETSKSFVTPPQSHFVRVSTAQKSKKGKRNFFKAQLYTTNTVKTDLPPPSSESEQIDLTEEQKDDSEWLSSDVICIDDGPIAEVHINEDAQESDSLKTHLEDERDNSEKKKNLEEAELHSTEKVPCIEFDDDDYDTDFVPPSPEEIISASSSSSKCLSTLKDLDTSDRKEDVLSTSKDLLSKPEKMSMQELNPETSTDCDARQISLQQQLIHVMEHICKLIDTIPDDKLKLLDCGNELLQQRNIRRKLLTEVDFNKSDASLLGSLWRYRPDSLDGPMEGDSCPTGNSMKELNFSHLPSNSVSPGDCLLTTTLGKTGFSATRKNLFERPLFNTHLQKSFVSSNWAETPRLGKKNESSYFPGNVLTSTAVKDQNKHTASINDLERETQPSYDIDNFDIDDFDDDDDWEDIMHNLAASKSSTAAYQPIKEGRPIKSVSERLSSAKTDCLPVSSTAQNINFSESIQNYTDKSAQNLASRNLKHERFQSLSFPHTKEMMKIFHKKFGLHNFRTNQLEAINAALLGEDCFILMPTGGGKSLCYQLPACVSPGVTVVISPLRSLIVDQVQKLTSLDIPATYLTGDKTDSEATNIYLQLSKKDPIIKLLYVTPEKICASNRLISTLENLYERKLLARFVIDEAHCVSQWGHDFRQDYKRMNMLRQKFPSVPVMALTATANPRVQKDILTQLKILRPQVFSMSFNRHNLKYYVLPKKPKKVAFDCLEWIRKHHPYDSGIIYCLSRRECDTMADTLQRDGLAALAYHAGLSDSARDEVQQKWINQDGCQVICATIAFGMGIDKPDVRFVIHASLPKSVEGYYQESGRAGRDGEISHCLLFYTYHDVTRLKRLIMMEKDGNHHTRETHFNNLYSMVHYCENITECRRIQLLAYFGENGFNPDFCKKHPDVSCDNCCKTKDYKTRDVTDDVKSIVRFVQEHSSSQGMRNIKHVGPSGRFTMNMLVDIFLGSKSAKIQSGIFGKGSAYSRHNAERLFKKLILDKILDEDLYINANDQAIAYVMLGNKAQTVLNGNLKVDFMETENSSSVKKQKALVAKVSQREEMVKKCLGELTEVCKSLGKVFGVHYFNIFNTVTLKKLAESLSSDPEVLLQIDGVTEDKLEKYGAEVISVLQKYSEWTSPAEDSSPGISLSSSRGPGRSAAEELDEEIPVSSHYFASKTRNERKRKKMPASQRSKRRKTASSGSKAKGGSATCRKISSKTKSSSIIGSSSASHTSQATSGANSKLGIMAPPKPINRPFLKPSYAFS

T2 sequence (P54132 whole entry): as the sequence (P54132 whole entry K31R) above, with R31K counted along it
T1 sequence (P54132 whole entry K38R): as the sequence (P54132 whole entry K31R) above, with R31K, K38R counted along it

- Kd (BLM [1]): 0.911 µM
- Kd (BLM [2]): 0.251 µM
- Kd (BLM [3]): 0.776 µM
SMILES: CCc1c2c(nc3ccc(OC(=O)N4CCC(N5CCCCC5)CC4)cc13)-c1cc3c(c(=O)n1C2)COC(=O)[C@]3(O)CC [irinotecan]

Source: PMC12241633, “Irinotecan alleviates chemoresistance to anthracyclines through the inhibition of AARS1-mediated BLM lactylation and homologous recombination repair” (Signal Transduction and Targeted Therapy, 2025)
